The values below are quoted from earlier work in publication PMC7948455, “Novel drug discovery platform for spinocerebellar ataxia, using fluorescence technology targeting β-III-spectrin” (The Journal of Biological Chemistry, 2020).

Where only a bound is given, the exact number is not on record here.

The subject of this data set is mammalian cells. Particulars: 10 μM ref 36, 37, 38; cited from earlier work.

In the case of `CCCCCCCC/C=C\CCCCCCCC(=O)NCc1ccc(O)c(OC)c1` [olvanil], the “Reduction of cell viability” value is on record as below 10%.
